Assay results published in ChEMBL document CHEMBL6109175, “Ubiquitin-Specific Protease 7 (USP7) as a Promising Therapeutic Target for Drug Discovery: From Mechanisms to Therapies” (J Med Chem, 2025).
pIC50, pKd: −log10 of the molar value.

Key:
[1] = target: T1, Ubiquitin carboxyl-terminal hydrolase 7 (Homo sapiens, UniProt Q93009); assay: Inhibition of USP7 catalytic domain human USP7 (208 to 560 residues) (unknown origin) extracted from Escherichia coli
[2] = target: T1, Ubiquitin carboxyl-terminal hydrolase 7; assay: Binding affinity to USP7 catalytic domain human USP7 (208 to 560 residues) (unknown origin) extracted from Escherichia coli assessed as dissociation constant
[3] = target: T1, Ubiquitin carboxyl-terminal hydrolase 7; assay: Inhibition of full length USP7 (unknown origin)
[4] = target: T1, Ubiquitin carboxyl-terminal hydrolase 7; assay: Inhibition of N-terminal His-tagged USP7 catalytic domain (208 to 554 residues) (unknown origin) by TR-FRET assay

T1 sequence (Q93009 whole entry, the tested form may be a part): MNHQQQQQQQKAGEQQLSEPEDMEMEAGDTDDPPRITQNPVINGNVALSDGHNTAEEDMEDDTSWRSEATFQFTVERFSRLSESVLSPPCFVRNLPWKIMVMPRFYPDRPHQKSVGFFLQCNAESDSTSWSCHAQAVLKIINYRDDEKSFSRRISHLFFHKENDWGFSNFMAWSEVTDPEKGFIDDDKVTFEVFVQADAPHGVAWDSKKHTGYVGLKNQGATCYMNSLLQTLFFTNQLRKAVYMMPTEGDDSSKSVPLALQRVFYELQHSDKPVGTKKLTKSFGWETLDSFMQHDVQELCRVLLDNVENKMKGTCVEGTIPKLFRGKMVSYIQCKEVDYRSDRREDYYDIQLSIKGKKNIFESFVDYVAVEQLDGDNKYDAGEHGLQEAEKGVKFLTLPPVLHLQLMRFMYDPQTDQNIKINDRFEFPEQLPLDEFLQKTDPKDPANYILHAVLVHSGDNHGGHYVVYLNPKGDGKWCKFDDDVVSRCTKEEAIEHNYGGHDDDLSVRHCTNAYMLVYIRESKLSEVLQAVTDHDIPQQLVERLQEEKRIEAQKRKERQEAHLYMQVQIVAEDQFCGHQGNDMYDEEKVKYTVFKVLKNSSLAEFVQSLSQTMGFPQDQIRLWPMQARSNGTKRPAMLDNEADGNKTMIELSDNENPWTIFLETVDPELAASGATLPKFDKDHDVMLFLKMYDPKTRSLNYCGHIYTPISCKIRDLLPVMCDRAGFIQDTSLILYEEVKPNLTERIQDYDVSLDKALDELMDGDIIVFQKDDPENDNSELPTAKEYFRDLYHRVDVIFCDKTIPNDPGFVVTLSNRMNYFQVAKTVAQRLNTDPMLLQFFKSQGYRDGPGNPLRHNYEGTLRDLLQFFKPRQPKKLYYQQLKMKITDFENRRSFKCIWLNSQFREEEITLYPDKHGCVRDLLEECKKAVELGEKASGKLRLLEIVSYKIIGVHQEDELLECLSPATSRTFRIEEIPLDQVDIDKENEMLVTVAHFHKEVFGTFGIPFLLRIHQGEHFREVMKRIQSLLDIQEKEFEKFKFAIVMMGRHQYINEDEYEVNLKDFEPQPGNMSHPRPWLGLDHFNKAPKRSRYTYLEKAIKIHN

O=C(C[C@@H](C(F)F)n1ccc(F)n1)N1CCC(O)(Cn2cnc3c(cnn3-c3ccc(F)cc3)c2=O)CC1 gave a pIC50 [1] of 4.28 and a pKd [2] of 7.19.

With O=C(CCc1ccccc1)N1CCC(O)(Cn2cnc3cc(Cl)ccc3c2=O)CC1 the pIC50 [3] was 4.99.

In the case of CCc1c(-c2ccc(C(=O)NC)nc2)cnc(N)c1-c1ccc(O)cc1, the pIC50 [4] was 6.21.
